≈ marks a conversion by molar mass, not a printed value.
What was measured:
[1] = system: vegetative cells of Listeria monocytogenes; test: Disc inhibition zone, Listeria monocytogenes at refrigeration and optimum temperature; assay type: cell-based; settings: 0.5 mg/ml
[2] = system: heat shocked spores from C. sporogenes; test: MIC and MBC, heat shocked spores; assay type: cell-based; settings: Clostridium sporogenes, Example 11 method (Tables 6 and 10)
Protocol: In order to further characterize the antibacterial activities of the fractions with the highest activity, it was important to determine their minimum inhibitory concentration (MIC), defined as the lowest concentration of an antimicrobial that will inhibit the visible growth of a microorganism after overnight incubation. […] But in the case of heat-shocked spores, the differences between nisin and the fractions with Kd of 0.4 were less pronounced, but still presented the desired inhibitory properties against spore germination.
In general terms, MIC is defined as the lowest concentration of an antimicrobial that will inhibit the visible growth of a microorganism after overnight incubation. While the MBC is the lowest concentration of the antimicrobial that will prevent the growth of a microorganism after subculture to fresh agar media free from the antibiotic or antimicrobial agent. The pool of active the fractions was tested at concentrations ranging from 0.005 to 2.5 mg/ml and nisin was used as control.

P. aeuroginosa = test: Disc inhibition zone, P. aeuroginosa vegetative cells; assay type: cell-based; settings: isolated compounds at 0.5 mg/ml, Table 9
Protocol: (§1) For the antibacterial evaluations, adjusted solutions (5 μL) were transferred to sterile 6-mm diameter discs made from Whatman no. 1 filter paper, so that after solvent evaporation each disc contained 12.5 μg of solids from the enriched avocado seed extract. Experimental controls were treated under the same conditions that the extracts and included negative control discs that contained 5 μL of acetone, and for positive control discs 5 μL of a nisin solution (30 mg/ml in sterile water) were added to provide a residual concentration of 150 μg of nisin in each disc. All test discs were left for about 1-2 hr in a Biological Safety Cabinet to evaporate the solvent. Suspensions of about 0.1 optical density (at 600 nm) containing approximately 1 to 2×10^8 CFU/ml of Clostridium sporogenes (ATCC 7955) vegetative cells, isolated native spores or isolated heat shocked spores were prepared as described in official protocols of Health Canada (Food Directorate, 2010). Aliquots of the suspensions (100 μL) were transferred to Petri dishes containing 15 ml of solid medium (TPGY medium) and spread evenly with a sterile plastic rod. Four discs, each containing 12.5 μg of the test extract, and two more discs (one solvent blank and one nisin positive control) were placed each dish and incubated at 37° C. under anaerobic conditions. The diameter of the inhibition zones (cm) around the discs were measured after 36 hrs.
(§2) In this example, the antimicrobial activities of the same isolated compounds described in Example 10 (Table 5) were tested against the growth of vegetative cells and heat shocked spores of C. sporogenes, and on vegetative cells of S. aureus, P. aeuroginosa, E. coli. and B. subtilis as previously described in Example 1, and at a concentration of 0.5 mg/ml. […] Since it has been reported that persin is able to inhibit fungi spore germination (Prusky et al., 1982), and in the present experiment it seems to have the lowest activity, it can be assumed that the other bioactive compound would have a higher activity against fungi spore.

S. aureus = test: Disc inhibition zone, S. aureus vegetative cells; assay type: cell-based; settings: isolated compounds at 0.5 mg/ml, Table 9; for zone of inhibition at 500 µg/mL: Staphylococcus aureus
Protocol: (§3) For the antibacterial evaluations, adjusted solutions (5 μL) were transferred to sterile 6-mm diameter discs made from Whatman no. 1 filter paper, so that after solvent evaporation each disc contained 12.5 μg of solids from the enriched avocado seed extract. […] All test discs were left for about 1-2 hr in a Biological Safety Cabinet to evaporate the solvent. Suspensions of about 0.1 optical density (at 600 nm) containing approximately 1 to 2×10^8 CFU/ml of Clostridium sporogenes (ATCC 7955) vegetative cells, isolated native spores or isolated heat shocked spores were prepared as described in official protocols of Health Canada (Food Directorate, 2010). Aliquots of the suspensions (100 μL) were transferred to Petri dishes containing 15 ml of solid medium (TPGY medium) and spread evenly with a sterile plastic rod. […] The diameter of the inhibition zones (cm) around the discs were measured after 36 hrs.
(§4) The fractions obtained from Normal phase FCPC, were then used to assess their antimicrobial activities against the growth of vegetative cells from S. aureus and B. subtilis.
(§5) In this example, the antimicrobial activities of the same isolated compounds described in Example 10 (Table 5) were tested against the growth of vegetative cells and heat shocked spores of C. sporogenes, and on vegetative cells of S. aureus, P. aeuroginosa, E. coli. and B. subtilis as previously described in Example 1, and at a concentration of 0.5 mg/ml.

E. coli = test: Disc inhibition zone, E. coli vegetative cells; assay type: cell-based; settings: isolated compounds at 0.5 mg/ml, Table 9; for zone of inhibition at 500 µg/mL: Escherichia coli
Protocol: as §1, §2

[3] = system: Clostridium sporogenes (ATCC 7955) heat shocked spores; test: microbe, parasite or virus in culture; assay type: cell-based; settings: ATCC7955, isolated compounds at 0.5 mg/ml, read-out: Disc Inhibition Zone, Heat Shocked Spores
Protocol: as §1

[4] = system: Clostridium sporogenes (ATCC 7955) vegetative cells; test: microbe, parasite or virus in culture; assay type: cell-based; settings: for zone of inhibition at 500 µg/mL: Clostridium sporogenes, ATCC7955, isolated compounds at 0.5 mg/ml, read-out: Disc Inhibition Zone, Vegetative Cells
Protocol: as §1

B. subtilis = test: Disc inhibition zone, B. subtilis vegetative cells; assay type: cell-based; settings: Bacillus subtilis, isolated compounds at 0.5 mg/ml, Table 9, read-out: Disc inhibition zone, B. Subtillis
Protocol: as §3, §4, §5

[5] = system: Colletotrichum gloeosporioides; settings: cited from earlier work
[6] = system: silkworm larvae Bombyx mori L.; settings: in vivo; cited from earlier work
[7] = system: lactating mammary gland and myocardial fibers of mice; settings: cited from earlier work
Spodoptera exigua = settings: in vivo; cited from earlier work

Structure (SMILES): CCCCCCCCCCCCC/C=C/C(=O)C[C@@H](O)COC(C)=O [Compound 9A, (5E)-1-acetoxy-2-hydroxy-5-nonadecen-4-one]
- zone of inhibition at 500 µg/mL ([1]; 37° C, 48 hours): 0 mm
- zone of inhibition at 500 µg/mL ([1]; 480 h, 4° C., 20 days): 10 mm
- MIC [2]: 7.8 µg/mL (≈ 22 µM)
- Disc inhibition zone, P. aeuroginosa (P. aeuroginosa): did not show inhibitory activity
- zone of inhibition at 500 µg/mL (P. aeuroginosa): 0 mm
- zone of inhibition at 500 µg/mL (S. aureus): 0 mm
- Disc inhibition zone, S. aureus (S. aureus): did not show inhibitory activity
- zone of inhibition at 500 µg/mL (E. coli): 0 mm
- Disc inhibition zone, E. coli (E. coli): did not show inhibitory activity
- zone of inhibition at 500 µg/mL [3]: 17 mm
- zone of inhibition at 500 µg/mL [4]: 19 mm
- zone of inhibition at 500 µg/mL (B. subtilis): 0 mm

Structure (SMILES): C=CCCCCCCCCCCC[C@H](O)C[C@H](O)COC(C)=O [Compound 3, (2S, 4S)-1-acetoxy-2,4-dihydroxy-n-heptadeca-16-ene]
- zone of inhibition at 500 µg/mL ([1]; 37° C, 48 hours): 0 mm
- zone of inhibition at 500 µg/mL ([1]; 480 h, 4° C., 20 days): 0 mm
- zone of inhibition at 500 µg/mL [3]: 10 mm
- zone of inhibition at 500 µg/mL [4]: 11 mm
- bioactivity fold lower than that of persin [5]: 3 fold

Structure (SMILES): C=C/C=C/CCCCCCCCCCCC(=O)C[C@@H](O)COC(C)=O [Compound 5, (2R, 16E)-1-acetoxy-2-hydroxy-4-oxo-nonadeca-16,18-diene]
- zone of inhibition at 500 µg/mL ([1]; 37° C, 48 hours): 0 mm
- zone of inhibition at 500 µg/mL ([1]; 480 h, 4° C., 20 days): 0 mm
- zone of inhibition at 500 µg/mL [3]: 11 mm
- zone of inhibition at 500 µg/mL [4]: 10 mm

Structure (SMILES): CCCCC/C=C\C/C=C\CCCCCCCC(=O)C[C@@H](O)COC(C)=O [Compound 9B, (R, 12Z, 15Z)-1-acetoxy-2-hydroxy-4-oxo-heneicosa-12,15-diene]
- zone of inhibition at 500 µg/mL ([1]; 37° C, 48 hours): 0 mm
- zone of inhibition at 500 µg/mL ([1]; 480 h, 4° C., 20 days): 0 mm
- concentration in the artificial diet inhibiting larval feeding [6]: ≥ 200 µg/g
- dose rate inducing lactating mammary gland necrosis [7]: 60 to 100 mg/kg
- doses at which necrosis of myocardial fibers may occur [7]: above 100 mg/kg
- zone of inhibition at 500 µg/mL [3]: 6 mm
- zone of inhibition at 500 µg/mL [4]: 10 mm
- antimicrobial activity reduced compared with persenone A ([4]; lack of C5-C6 double bond, 0.5 mg/ml): 37.5%
- concentration of diet with inhibitory effects on feeding (Spodoptera exigua): 400 µg/g
- concentration of diet with inhibitory effects on larval growth (Spodoptera exigua): 200 µg/g
- concentration inhibiting fungi spore germination completely [5]: 790 µg/mL

Structure (SMILES): CC/C=C/CCCCCCCCC/C=C/C(=O)C[C@@H](O)COC(C)=O (single isomer, unassigned) [Compound 6]
- zone of inhibition at 500 µg/mL ([1]; 37° C, 48 hours): 0 mm
- zone of inhibition at 500 µg/mL ([1]; 480 h, 4° C., 20 days): 11 mm
- MIC [2]: 15.6 µg/mL (≈ 44.3 µM)
- Disc inhibition zone, P. aeuroginosa (P. aeuroginosa): did not show inhibitory activity
- zone of inhibition at 500 µg/mL (P. aeuroginosa): 0 mm
- zone of inhibition at 500 µg/mL (S. aureus): 0 mm
- Disc inhibition zone, S. aureus (S. aureus): did not show inhibitory activity
- zone of inhibition at 500 µg/mL (E. coli): 0 mm
- Disc inhibition zone, E. coli (E. coli): did not show inhibitory activity
- zone of inhibition at 500 µg/mL [3]: 17 mm
- zone of inhibition at 500 µg/mL [4]: 19 mm
- zone of inhibition at 500 µg/mL (B. subtilis): 13 mm

Structure (SMILES): CCCCC/C=C\C/C=C\CCCCC/C=C/C(=O)C[C@@H](O)COC(C)=O (single isomer, unassigned) [Compound 7]
- zone of inhibition at 500 µg/mL ([1]; 37° C, 48 hours): 0 mm
- zone of inhibition at 500 µg/mL ([1]; 480 h, 4° C., 20 days): 11 mm
- MIC [2]: 7.8 µg/mL (≈ 20.6 µM)
- Disc inhibition zone, P. aeuroginosa (P. aeuroginosa): did not show inhibitory activity
- zone of inhibition at 500 µg/mL (P. aeuroginosa): 0 mm
- zone of inhibition at 500 µg/mL (S. aureus): 0 mm
- Disc inhibition zone, S. aureus (S. aureus): did not show inhibitory activity
- zone of inhibition at 500 µg/mL (E. coli): 0 mm
- Disc inhibition zone, E. coli (E. coli): did not show inhibitory activity
- zone of inhibition at 500 µg/mL [3]: 15 mm
- zone of inhibition at 500 µg/mL [4]: 16 mm
- zone of inhibition at 500 µg/mL (B. subtilis): 7 mm

— patent publication US10582707B2, “Antimicrobial antibacterial and spore germination inhibiting activity from an avocado extract enriched in bioactive compounds” (priority 2010, dated 2020)
